Assay results from patent US20090304816A1, “METHOD AND COMPOSITION FOR TREATING AND DIAGNOSING RESTLESS LEGS SYNDROME” (CEREUSCIENCE AB, priority 2005, published 2009).
Where two headings read alike, the source gives them in different places.

Tests used:
[1] = system: patients with moderate to severe RLS/PMLS; settings: pramipexole 0.35 mg once daily evening dose for 21 days
Protocol: (§3) Due to remaining RLS complaints iron sucrose therapy in the dosage 500 mg i.v. twice, was introduced during one week (FIG. 1; C).

[2] = system: patients with moderate to severe RLS/PMLS; settings: both patients; pramipexole 0.35 mg once daily for 21 days
Protocol: as §3

[3] = system: patients with moderate to severe RLS/PMLS; experiment: IRLSS score in two patients with RLS/PLMS, Example 1; type: in vivo
Source text: (§1) RLS and PLMS are typically diagnosed by patient history and standardized questionnaires as well as by polysomnographic evaluation.

[4] = system: patient with clinical symptoms of RLS; experiment: Side effects and augmentation in a third patient with RLS, Example 2; type: in vivo; settings: iron dextran 200 mg daily
Protocol: (§2) A subsequent clinical observational study included a patient with clinical symptoms of RLS and an IRLSS score of 26 on the diagnostic evaluation under treatment with L-dopa (levodopa) and carbidopa (Sinernet®, fixed combination dosage of 100 mg L-dopa and 25 mg carbidopa) (FIG. 2; A). The patient needed to be treated with altogether three tablets per evening in order to obtain acceptable symptom relief (IRLSS score 4. FIG. 2; B). […] An attempt to discontinue dopaminergic treatment altogether failed. Following this discontinuation there was a substantial symptom relapse (IRLSS score 15. FIG. 2; E).

[5] = system: patient with clinical symptoms of RLS; experiment: IRLSS score in a third patient with RLS, Example 2; type: in vivo; settings: iron dextran, after discontinuation of dopaminergic treatment (FIG. 2; E)
Protocol: as §1, §2

CCCN[C@H]1CCc2nc(N)sc2C1 [Pramipexole]
PLMI ([1]; patient with baseline PLMI 3): 0
PLMI ([1]; patient with baseline PLMI 17): 2
side effects [2]: No side effects were reported
IRLSS score ([3]; patient with baseline IRLSS 28, pramipexole 0.35 mg once daily, day 21 (FIG. 1; B)): 17
IRLSS score ([3]; patient with baseline IRLSS 30, pramipexole 0.35 mg once daily, day 21 (FIG. 1; B)): 15

iron dextran
adverse effects [4]: did not cause any adverse effects
IRLSS score [5]: 15

iron sucrose
IRLSS score ([3]; patient with baseline IRLSS 28, after iron sucrose infusions, pramipexole discontinued for one week (FIG. 1; D)): 18
IRLSS score ([3]; patient with baseline IRLSS 30, after iron sucrose infusions, pramipexole discontinued for one week (FIG. 1; D)): 14
